Earlier results, collected in publication PMC9460038, “Antigiardial Activity of Foeniculum vulgare Hexane Extract and Some of Its Constituents” (Plants, 2022).

Test system: multidrug resistant (MDR) clinical isolates of Mycobacterium tuberculosis
Conditions: three MDR clinical isolates; cited from earlier work

## CCCCCC/C=C/C=C/C=O [Trans, trans-2,4-undecadienal, trans, trans-2,4-undecadienal]
  MIC: 25 to 50 µg/mL
